#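 Exposure lasted 48 hours, with cells grown in 96-well plates and compounds tested at five concentrations. Definition used: TGI = concentration required for complete inhibition of growth.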
# Assays:
# Assay in all cases: NCI-60 cell line screen, 48 h
# [1] = system: 786-0 renal
# [2] = system: COLO 205 colon
# [3] = system: SW-620 colon
# [4] = system: OVCAR-3 ovarian
# [5] = system: HCT-15 colon
# [6] = system: HT29 colon
# [7] = system: NCI-H226 lung
# [8] = system: NCI-H460 lung
# [9] = system: SK-OV-3 ovarian
# [10] = system: SNB-75 CNS
# [11] = system: RPMI-8226 leukemia
# [12] = system: ACHN renal
# [13] = system: HOP-62 NSCLC
# [14] = system: CCRF-CEM leukemia
# [15] = system: DU-145 prostate
# [16] = system: HL-60(TB) leukemia
# [17] = system: HS 578T breast
# [18] = system: SNB-19 CNS
# [19] = system: SK-MEL-2 melanoma
# [20] = system: MDA-N
# [21] = system: SF-295 CNS
# [22] = system: OVCAR-8 ovarian
# [23] = system: M14 melanoma
# [24] = system: NCI-H23 lung
# [25] = system: MDA-MB-231 breast
# [26] = system: PC-3 prostate
# [27] = system: TK-10 renal
# [28] = system: OVCAR-5 ovarian
# [29] = system: IGROV1 ovarian
# [30] = system: MOLT-4 leukemia
# [31] = system: HOP-92 NSCLC
# [32] = system: SN12C renal
# [33] = system: SF-268 CNS
# [34] = system: MDA-MB-435
# [35] = system: MCF7 breast
# [36] = system: U251 CNS
# [37] = system: RXF 393 renal
# [38] = system: K-562 leukemia
# [39] = system: SK-MEL-28 melanoma
# [40] = system: UO-31 renal
# [41] = system: LOX IMVI melanoma
# [42] = system: SR leukemia
# [43] = system: SK-MEL-5 melanoma
# [44] = system: KM12 colon
# [45] = system: SF-539 CNS
# [46] = system: MALME-3M melanoma
# [47] = system: HCT-116 colon
# [48] = system: A498 renal
# [49] = system: A549 NSCLC
# [50] = system: EKVX NSCLC
# [51] = system: HCC-2998 colon
# [52] = system: BT-549 breast
# [53] = system: UACC-257 melanoma
# [54] = system: T-47D breast
# [55] = system: NCI-H522 lung
# [56] = system: UACC-62 melanoma
# [57] = system: NCI/ADR-RES ovarian
# [58] = system: CAKI-1 renal
# [59] = system: OVCAR-4 ovarian
# [60] = system: KM20L2 colon
structure (smiles),measurement,setting,value
O=C(O)[C@H]1NC[C@H]2C(Br)=NO[C@@H]12,TGI,[1],> 100 µM
same,TGI,[2],> 100 µM
same,TGI,[3],> 100 µM
same,TGI,[4],> 100 µM
same,TGI,[5],> 100 µM
same,TGI,[6],> 100 µM
same,TGI,[7],> 100 µM
same,TGI,[8],> 100 µM
same,TGI,[9],> 100 µM
same,TGI,[10],> 100 µM
same,TGI,[11],> 100 µM
same,TGI,[12],> 100 µM
same,TGI,[13],> 100 µM
same,TGI,[14],> 100 µM
same,TGI,[15],> 100 µM
same,TGI,[16],> 100 µM
same,TGI,[17],> 100 µM
same,TGI,[18],> 100 µM
same,TGI,[19],> 100 µM
same,TGI,[20],> 100 µM
same,TGI,[21],> 100 µM
same,TGI,[22],> 100 µM
same,TGI,[23],> 100 µM
same,TGI,[24],> 100 µM
same,TGI,[25],> 100 µM
same,TGI,[26],> 100 µM
same,TGI,[27],> 100 µM
same,TGI,[28],> 100 µM
same,TGI,[29],> 100 µM
same,TGI,[30],> 100 µM
same,TGI,[31],> 100 µM
same,TGI,[32],> 100 µM
same,TGI,[33],> 100 µM
same,TGI,[34],> 100 µM
same,TGI,[35],> 100 µM
same,TGI,[36],> 100 µM
same,TGI,[37],> 100 µM
same,TGI,[38],> 100 µM
same,TGI,[39],> 100 µM
same,TGI,[40],> 100 µM
same,TGI,[41],> 100 µM
same,TGI,[42],> 100 µM
same,TGI,[43],> 100 µM
same,TGI,[44],> 100 µM
same,TGI,[45],> 100 µM
same,TGI,[46],> 100 µM
same,TGI,[47],> 100 µM
same,TGI,[48],> 100 µM
same,TGI,[49],> 100 µM
same,TGI,[50],> 100 µM
same,TGI,[51],> 100 µM
same,TGI,[52],> 100 µM
same,TGI,[53],> 100 µM
same,TGI,[54],> 100 µM
same,TGI,[55],> 100 µM
same,TGI,[56],> 100 µM
same,TGI,[57],> 100 µM
same,TGI,[58],> 100 µM
same,TGI,[59],> 100 µM
CCCCCCC(=O)OC[n+]1ccc2c(C)c3[nH]c4ccc(OC)cc4c3c(C)c2c1,TGI,[2],1.34 µM
same,TGI,[3],1.78 µM
same,TGI,[4],4.84 µM
same,TGI,[5],1.24 µM
same,TGI,[8],1.02 µM
same,TGI,[9],3.83 µM
same,TGI,[11],2.1 µM
same,TGI,[12],4.88 µM
same,TGI,[14],1.63 µM
same,TGI,[15],3.59 µM
same,TGI,[16],1.7 µM
same,TGI,[19],9.35 µM
same,TGI,[20],1.59 µM
same,TGI,[60],5.32 µM
same,TGI,[21],1.59 µM
same,TGI,[22],2.12 µM
same,TGI,[25],2.36 µM
same,TGI,[26],1.51 µM
same,TGI,[27],10.4 µM
same,TGI,[28],2.75 µM
same,TGI,[29],3.83 µM
same,TGI,[31],3.49 µM
same,TGI,[32],1.91 µM
same,TGI,[34],1.79 µM
same,TGI,[35],1.75 µM
same,TGI,[38],1.31 µM
same,TGI,[40],5.48 µM
same,TGI,[41],1.5 µM
same,TGI,[42],3.46 µM
same,TGI,[45],1.67 µM
same,TGI,[46],14.2 µM
same,TGI,[48],2.02 µM
same,TGI,[49],1.88 µM
same,TGI,[51],2.68 µM
same,TGI,[54],11.5 µM
same,TGI,[58],6.69 µM

# From PubChem BioAssay (NCI)
